Data from patent publication US7449474B2, “Tri-substituted ureas as cytokine inhibitors” (The Procter & Gamble Company, priority 2004, dated 2008).

Each molecule was assayed on TNF-α (assay: Inhibition of TNF-α in lipopolysaccharide (LPS) stimulated human monocytic THP-1 cells). Details: LPS (1 μg/mL) stimulated THP-1 cells, 4 hours incubation, human TNF-α by ELISA.
Format: cell-based
Description: In addition, Tumor Necrosis Factor, TNF-α, inhibition can be measured by utilizing lipopolysaccharide (LPS) stimulated human monocytic cells (THP-1) as described in: • i) K. M. Mohler et al., “Protection Against a Lethal Dose of Endotoxin by an Inhibitor of Tumour Necrosis Factor Processing”, Nature, 370, pp 218-220 (1994). • ii) U.S. Pat. No. 6,297,381 B1 Cirillo et al., issued Oct. 2, 2001, incorporated by reference and reproduced herein below in relevant portion thereof.
The inhibition of cytokine production can be observed by measuring inhibition of TNF-α in lipopolysaccharide stimulated THP-1 cells. All cells and reagents are diluted in RPMI 1640 with phenol red and L-glutamine, supplemented with additional L-glutamine (total: 4 mM), penicillin and streptomycin (50 units/mL each) and fetal bovine serum (FBS 3%) (GIBCO, all conc. Final). Assay is performed under sterile conditions, only test compound preparation is non-sterile. Initial stock solutions are made in DMSO followed by dilution into RPMI 1640 2-fold higher than the desired final assay concentration. Confluent THP-1 cells ([…], final conc.; American Type Culture Company, Rockville, Md.) are added to 96 well polypropylene round bottomed culture plates (Costar 3790; sterile) containing 125 μL test compound (2-fold concentrated) or DMSO vehicle (controls, blanks). DMSO concentration should not exceed 0.2% final. Cell mixture is allowed to preincubate for 15 minutes at 37° C., 5% CO2 prior to stimulation with lipopolysaccharide (LPS, 1 μg/mL final; Sigma L-2630, from E. coli serotype 0111.B4; stored as 1 mg/mL stock in endotoxin screened diluted H2O vehicle at −80° C.). Blanks (unstimulated) receive H2O vehicle; final incubation volume is 250 μL. Incubation (4 hours) proceeds as described above. Assay is to be terminated by centrifuging plates 5 minutes at room temperature, 1600 rpm ([…]); supernatants are then transferred to clean 96 well plates and stored at −80° C. until analyzed for human TNF-α by a commercially available ELISA kit (Biosource #KHC3015, Camarillo, Calif.). The calculated IC50 value is the concentration of the test compound that caused a 50% decrease in the maximal TNF-α production.

With CCNC(=O)N(c1ccc(OC)cc1)c1ccnc(N[C@@H](C)C(C)(C)O)n1 [1-(4-Methoxyphenyl)-1-{2-[(1S)-2-hydroxy-1,2-dimethyl-propylamino]-pyrimidin-4-yl}-3-ethyl-urea] as the molecule, how does the IC50 read?
Its IC50 is 16 nM.

Which IC50 does the source give for CCNC(=O)N(c1ccc(OCC)cc1)c1ccnc(N[C@@H](C)COC)n1 [1-(4-Ethoxyphenyl)-1-{2-[(1S)-2-methoxy-1-methyl-ethylamino]-pyrimidin-4-yl}-3-ethyl-urea] here?
The IC50 was 276 nM.

Which IC50 does the source give for CCNC(=O)N(c1ccc(F)cc1)c1ccnc(N[C@@H](C)C(C)(C)O)n1 [1-(4-Fluorophenyl)-1-{2-[(1S)-2-hydroxy-1,2-dimethyl-propylamino]-pyrimidin-4-yl}-3-ethyl-urea] here?
Its IC50 is 30 nM.

CCNC(=O)N(c1ccc(SC)cc1)c1ccnc(N[C@@H](C)COC)n1 [1-(4-Methylsulfanylphenyl)-1-{2-[(1S)-2-methoxy-1-methyl-ethylamino]-pyrimidin-4-yl}-3-ethyl-urea] was tested. Which IC50 did it give?
Its IC50 is 26 nM.

For CCNC(=O)N(c1ccc(OC)cc1)c1ccnc(N[C@@H](C)COC)n1 [1-(4-Methoxyphenyl)-1-{2-[(1S)-2-methoxy-1-methyl-ethylamino]-pyrimidin-4-yl}-3-ethyl-urea], which IC50 is on record?
The IC50 was 666 nM.

For CCNC(=O)N(c1ccc(F)cc1)c1ccnc(NC2CCOCC2)n1 [1-(4-Fluorophenyl)-1-[2-(tetrahydro-pyran-4-ylamino)-pyrimidin-4-yl]-3-ethyl-urea], which IC50 is on record?
The IC50 was 86 nM.

How did the IC50 turn out when CCCCNC(=O)N(c1ccc(OC)cc1)c1ccnc(N[C@@H](C)COC)n1 [1-(4-Methoxyphenyl)-1-{2-[(1S)-2-methoxy-1-methyl-ethylamino]-pyrimidin-4-yl}-3-butyl-urea] was run?
Its IC50 is 324 nM.

CCNC(=O)N(c1ccc(F)cc1)c1ccnc(NC(C)C)n1 [1-(4-Fluorophenyl)-1-[2-(iso-propylamino)-pyrimidin-4-yl]-3-ethyl-urea] was tested. Which IC50 did it give?
The IC50 was 28 nM.
